Assay results: ChEMBL document CHEMBL1153552, “Comparative in vitro pharmacodynamics of caspofungin, micafungin, and anidulafungin against germinated and nongerminated Aspergillus conidia” (2008)
The source made the active and inactive calls. The rule behind the calls is not given here. Numbered stars: 1 amine (or outer) side, 2 acyl side, 3 side chain; on linkers, the order of the positions; unused ones are H or OH. Bridge positions count the residues as written; N and C are the ends. Square brackets hold non-standard residues; d marks the D form. Peptide text beside a SMILES is read from it. * marks the point of attachment. pTerphenylCO(4''-OnC5H11) = CCCCCOc1ccc(-c2ccc(-c3ccc(C(=O)*)cc3)cc2)cc1; Orn(4R-OH,5R-OH) = O=C([C@H](C[C@@H](O)[C@@H](O)N[*:3])N[*:1])[*:2]; hTyr(3S-OH,4S-OH) = N[C@H](C(=O)O)[C@H](O)[C@@H](O)c1ccc(O)cc1; Pro(3S-OH,4S-Me) = C[C@H]1CN[C@H](C(=O)O)[C@H]1O; Hyp = O=C(O)[C@@H]1C[C@@H](O)CN1

Legend:
Aspergillus fumigatus [1] = assay: Antifungal activity against nongerminated Aspergillus fumigatus assessed as lowest drug concentration that produced short, stubby and highly branched hyphae after 48 hrs by microscopic analysis; assay type: functional; conditions: read-out: MEC
Aspergillus fumigatus [2] = assay: Antifungal activity against germinated Aspergillus fumigatus assessed as lowest drug concentration that produced short, stubby and highly branched hyphae after 48 hrs by microscopic analysis; assay type: functional; conditions: read-out: MEC
Aspergillus fumigatus [3] = assay: Ratio of log2 of MEC for germinated Aspergillus fumigatus to log2 of MEC for nongerminated Aspergillus fumigatus; assay type: functional
Aspergillus terreus [4] = assay: Antifungal activity against nongerminated Aspergillus terreus assessed as lowest drug concentration that produced short, stubby and highly branched hyphae after 48 hrs by microscopic analysis; assay type: functional; conditions: read-out: MEC
Aspergillus terreus [5] = assay: Antifungal activity against germinated Aspergillus terreus assessed as lowest drug concentration that produced short, stubby and highly branched hyphae after 48 hrs by microscopic analysis; assay type: functional; conditions: read-out: MEC
Aspergillus terreus [6] = assay: Ratio of log2 of MEC for germinated Aspergillus terreus to log2 of MEC for nongerminated Aspergillus terreus; assay type: functional
Aspergillus flavus [7] = assay: Antifungal activity against nongerminated Aspergillus flavus assessed as lowest drug concentration that produced short, stubby and highly branched hyphae after 48 hrs by microscopic analysis; assay type: functional; conditions: read-out: MEC
Aspergillus flavus [8] = assay: Antifungal activity against germinated Aspergillus flavus assessed as lowest drug concentration that produced short, stubby and highly branched hyphae after 48 hrs by microscopic analysis; assay type: functional; conditions: read-out: MEC
Aspergillus flavus [9] = assay: Ratio of log2 of MEC for germinated Aspergillus flavus to log2 of MEC for nongerminated Aspergillus flavus; assay type: functional
Aspergillus fumigatus [10] = assay: Effect on nongerminated Aspergillus fumigatus metabolic activity assessed as drug concentration at which fungal metabolic activity occurs after 2 hrs by XTT assay; assay type: functional
Aspergillus fumigatus [11] = assay: Effect on germinated Aspergillus fumigatus metabolic activity assessed as drug concentration at which fungal metabolic activity occurs after 2 hrs by XTT assay; assay type: functional
Aspergillus fumigatus [12] = assay: Effect on Aspergillus fumigatus metabolic activity assessed number of twofold drug dilutions required for germinated fungal metabolic activity to nongerminated fungal metabolic activity; assay type: functional
Aspergillus terreus [13] = assay: Effect on nongerminated Aspergillus terreus metabolic activity assessed as drug concentration at which fungal metabolic activity occurs after 2 hrs by XTT assay; assay type: functional
Aspergillus terreus [14] = assay: Effect on germinated Aspergillus terreus metabolic activity assessed as drug concentration at which fungal metabolic activity occurs after 2 hrs by XTT assay; assay type: functional
Aspergillus terreus [15] = assay: Effect on Aspergillus terreus metabolic activity assessed number of twofold drug dilutions required for germinated fungal metabolic activity to nongerminated fungal metabolic activity; assay type: functional
Aspergillus flavus [16] = assay: Effect on nongerminated Aspergillus flavus metabolic activity assessed as drug concentration at which fungal metabolic activity occurs after 2 hrs by XTT assay; assay type: functional
Aspergillus flavus [17] = assay: Effect on germinated Aspergillus flavus metabolic activity assessed as drug concentration at which fungal metabolic activity occurs after 2 hrs by XTT assay; assay type: functional
Aspergillus flavus [18] = assay: Effect on Aspergillus flavus metabolic activity assessed number of twofold drug dilutions required for germinated fungal metabolic activity to nongerminated fungal metabolic activity; assay type: functional
Aspergillus fumigatus [19] = assay: Induction of maximal metabolic inhibition in nongerminated Aspergillus fumigatus assessed as minimal metabolic activity Ymin after 2 hrs by XTT assay; assay type: functional; set-up: scale not given: the % may be the effect or the level left
Aspergillus fumigatus [20] = assay: Induction of maximal metabolic inhibition in germinated Aspergillus fumigatus assessed as minimal metabolic activity Ymin after 2 hrs by XTT assay; assay type: functional; set-up: scale not given: the % may be the effect or the level left
Aspergillus terreus [21] = assay: Induction of maximal metabolic inhibition in nongerminated Aspergillus terreus assessed as minimal metabolic activity Ymin after 2 hrs by XTT assay; assay type: functional; set-up: scale not given: the % may be the effect or the level left
Aspergillus terreus [22] = assay: Induction of maximal metabolic inhibition in germinated Aspergillus terreus assessed as minimal metabolic activity Ymin after 2 hrs by XTT assay; assay type: functional; set-up: scale not given: the % may be the effect or the level left
Aspergillus flavus [23] = assay: Induction of maximal metabolic inhibition in nongerminated Aspergillus flavus assessed as minimal metabolic activity Ymin after 2 hrs by XTT assay; assay type: functional; set-up: scale not given: the % may be the effect or the level left
Aspergillus flavus [24] = assay: Induction of maximal metabolic inhibition in germinated Aspergillus flavus assessed as minimal metabolic activity Ymin after 2 hrs by XTT assay; assay type: functional; set-up: scale not given: the % may be the effect or the level left
Aspergillus fumigatus [25] = assay: Increase in metabolic activity of nongerminated Aspergillus fumigatus assessed as formation of short, stubby aberrant hyphae at 0.03 ug/mL after 48 hrs by XTT assay; assay type: functional, organism-based
Aspergillus fumigatus [26] = assay: Increase in metabolic activity of germinated Aspergillus fumigatus assessed as formation of short, stubby aberrant hyphae at 0.03 ug/mL after 48 hrs by XTT assay; assay type: functional, organism-based
Aspergillus terreus [27] = assay: Increase in metabolic activity of nongerminated Aspergillus terreus assessed as formation of short, stubby aberrant hyphae at 0.03 ug/mL after 48 hrs by XTT assay; assay type: functional, organism-based
Aspergillus terreus [28] = assay: Increase in metabolic activity of germinated Aspergillus terreus assessed as formation of short, stubby aberrant hyphae at 0.03 ug/mL after 48 hrs by XTT assay; assay type: functional, organism-based
Aspergillus flavus [29] = assay: Increase in metabolic activity of nongerminated Aspergillus flavus assessed as formation of short, stubby aberrant hyphae at 0.03 ug/mL after 48 hrs by XTT assay; assay type: functional, organism-based
Aspergillus flavus [30] = assay: Increase in metabolic activity of germinated Aspergillus flavus assessed as formation of short, stubby aberrant hyphae at 0.03 ug/mL after 48 hrs by XTT assay; assay type: functional, organism-based
Aspergillus fumigatus [31] = assay: Increase in metabolic activity of nongerminated Aspergillus fumigatus assessed as elongation of short, stubby aberrant hyphae at 2 ug/mL after 48 hrs by XTT assay; assay type: functional, organism-based
Aspergillus fumigatus [32] = assay: Increase in metabolic activity of germinated Aspergillus fumigatus assessed as elongation of short, stubby aberrant hyphae at 2 ug/mL after 48 hrs by XTT assay; assay type: functional, organism-based
Aspergillus terreus [33] = assay: Increase in metabolic activity of nongerminated Aspergillus terreus assessed as elongation of short, stubby aberrant hyphae at 2 ug/mL after 48 hrs by XTT assay; assay type: functional, organism-based
Aspergillus terreus [34] = assay: Increase in metabolic activity of germinated Aspergillus terreus assessed as elongation of short, stubby aberrant hyphae at 2 ug/mL after 48 hrs by XTT assay; assay type: functional, organism-based
Aspergillus flavus [35] = assay: Increase in metabolic activity of nongerminated Aspergillus flavus assessed as elongation of short, stubby aberrant hyphae at 2 ug/mL after 48 hrs by XTT assay; assay type: functional, organism-based
Aspergillus flavus [36] = assay: Increase in metabolic activity of germinated Aspergillus flavus assessed as elongation of short, stubby aberrant hyphae at 2 ug/mL after 48 hrs by XTT assay; assay type: functional, organism-based
Aspergillus fumigatus [37] = assay: Increase in metabolic activity of nongerminated Aspergillus fumigatus elongation of short, stubby aberrant hyphae at 16 ug/mL after 48 hrs by XTT assay; assay type: functional, organism-based
Aspergillus fumigatus [38] = assay: Increase in metabolic activity of germinated Aspergillus fumigatus assessed as elongation of short, stubby aberrant hyphae at 16 ug/mL after 48 hrs by XTT assay; assay type: functional, organism-based
Aspergillus terreus [39] = assay: Increase in metabolic activity of nongerminated Aspergillus terreus assessed as elongation of short, stubby aberrant hyphae at 16 ug/mL after 48 hrs by XTT assay; assay type: functional, organism-based
Aspergillus terreus [40] = assay: Increase in metabolic activity of germinated Aspergillus terreus assessed as elongation of short, stubby aberrant hyphae at 16 ug/mL after 48 hrs by XTT assay; assay type: functional, organism-based
Aspergillus flavus [41] = assay: Increase in metabolic activity of nongerminated Aspergillus flavus assessed as elongation of short, stubby aberrant hyphae at 16 ug/mL after 48 hrs by XTT assay; assay type: functional, organism-based
Aspergillus flavus [42] = assay: Increase in metabolic activity of germinated Aspergillus flavus assessed as elongation of short, stubby aberrant hyphae at 16 ug/mL after 48 hrs by XTT assay; assay type: functional, organism-based
Aspergillus fumigatus [43] = assay: Antifungal activity against nongerminated Aspergillus fumigatus assessed as absence of visual fungal growth at 128 ug/mL; assay type: functional, organism-based
Aspergillus fumigatus [44] = assay: Antifungal activity against germinated Aspergillus fumigatus assessed as absence of visual fungal growth at 128 ug/mL; assay type: functional, organism-based
Aspergillus terreus [45] = assay: Antifungal activity against nongerminated Aspergillus terreus assessed as absence of visual fungal growth at 128 ug/mL; assay type: functional, organism-based
Aspergillus terreus [46] = assay: Antifungal activity against germinated Aspergillus terreus assessed as absence of visual fungal growth at 128 ug/mL; assay type: functional, organism-based
Aspergillus flavus [47] = assay: Antifungal activity against nongerminated Aspergillus flavus assessed as absence of visual fungal growth at 128 ug/mL; assay type: functional, organism-based
Aspergillus flavus [48] = assay: Antifungal activity against germinated Aspergillus flavus assessed as absence of visual fungal growth at 128 ug/mL; assay type: functional, organism-based
Aspergillus fumigatus [49] = assay: Antifungal activity against nongerminated Aspergillus fumigatus assessed as absence of visual fungal growth at 64 ug/mL; assay type: functional, organism-based
Aspergillus fumigatus [50] = assay: Antifungal activity against germinated Aspergillus fumigatus assessed as absence of visual fungal growth at 64 ug/mL; assay type: functional, organism-based
Aspergillus terreus [51] = assay: Antifungal activity against nongerminated Aspergillus terreus assessed as absence of visual fungal growth at 64 ug/mL; assay type: functional, organism-based
Aspergillus terreus [52] = assay: Antifungal activity against germinated Aspergillus terreus assessed as absence of visual fungal growth at 64 ug/mL; assay type: functional, organism-based
Aspergillus flavus [53] = assay: Antifungal activity against nongerminated Aspergillus flavus assessed as absence of visual fungal growth at 64 ug/mL; assay type: functional, organism-based
Aspergillus flavus [54] = assay: Antifungal activity against germinated Aspergillus flavus assessed as absence of visual fungal growth at 64 ug/mL; assay type: functional, organism-based

Which results are given for `CCCCCOc1ccc(-c2ccc(-c3ccc(C(=O)N[C@H]4C[C@@H](O)[C@@H](O)NC(=O)[C@@H]5[C@@H](O)[C@@H](C)CN5C(=O)[C@H]([C@@H](C)O)NC(=O)[C@H]([C@H](O)[C@@H](O)c5ccc(O)cc5)NC(=O)[C@@H]5C[C@@H](O)CN5C(=O)[C@H]([C@@H](C)O)NC4=O)cc3)cc2)cc1` [ANIDULAFUNGIN] ({pTerphenylCO(4''-OnC5H11)}-[Orn(4R-OH,5R-OH)]T[Hyp][hTyr(3S-OH,4S-OH)]T[Pro(3S-OH,4S-Me)]; lactam 1-C)?
minimal effective concentration (Aspergillus fumigatus [1]): 0.03 µg/mL; minimal effective concentration (Aspergillus fumigatus [2]): 0.12 µg/mL; Ratio (Aspergillus fumigatus [3]): 2; minimal effective concentration (Aspergillus terreus [4]): 0.03 µg/mL; minimal effective concentration (Aspergillus terreus [5]): 0.25 µg/mL; Ratio (Aspergillus terreus [6]): 3; minimal effective concentration (Aspergillus flavus [7]): 0.03 µg/mL; minimal effective concentration (Aspergillus flavus [8]): 0.25 µg/mL; Ratio (Aspergillus flavus [9]): 2.5; EC5 (Aspergillus fumigatus [10]): 0.03 µg/mL; EC5 (Aspergillus fumigatus [11]): 0.11 µg/mL; Ratio (Aspergillus fumigatus [12]): 2.4; EC5 (Aspergillus terreus [13]): 0.01 µg/mL; EC5 (Aspergillus terreus [14]): 0.1 µg/mL; Ratio (Aspergillus terreus [15]): 2.97; EC5 (Aspergillus flavus [16]): 0.01 µg/mL; EC5 (Aspergillus flavus [17]): 0.09 µg/mL; Ratio (Aspergillus flavus [18]): 2.96; Activity (Aspergillus fumigatus [19]): 26%; Activity (Aspergillus fumigatus [20]): 36%; Activity (Aspergillus terreus [21]): 30%; Activity (Aspergillus terreus [22]): 44%; Activity (Aspergillus flavus [23]): 16%; Activity (Aspergillus flavus [24]): 16%; Activity (Aspergillus fumigatus [25]): Active; Activity (Aspergillus fumigatus [26]): Active; Activity (Aspergillus terreus [27]): Active; Activity (Aspergillus terreus [28]): Active; Activity (Aspergillus flavus [29]): Active; Activity (Aspergillus flavus [30]): Active; Activity (Aspergillus fumigatus [31]): Active; Activity (Aspergillus fumigatus [32]): Active; Activity (Aspergillus terreus [33]): Active; Activity (Aspergillus terreus [34]): Active; Activity (Aspergillus flavus [35]): Active; Activity (Aspergillus flavus [36]): Active; Activity (Aspergillus fumigatus [37]): Active; Activity (Aspergillus fumigatus [38]): Active; Activity (Aspergillus terreus [39]): Active; Activity (Aspergillus terreus [40]): Active; Activity (Aspergillus flavus [41]): Active; Activity (Aspergillus flavus [42]): Active; Activity (Aspergillus fumigatus [43]): inactive; Activity (Aspergillus fumigatus [44]): inactive; Activity (Aspergillus terreus [45]): inactive; Activity (Aspergillus terreus [46]): inactive; Activity (Aspergillus flavus [47]): inactive; Activity (Aspergillus flavus [48]): inactive; Activity (Aspergillus fumigatus [49]): inactive; Activity (Aspergillus fumigatus [50]): inactive; Activity (Aspergillus terreus [51]): inactive; Activity (Aspergillus terreus [52]): inactive; Activity (Aspergillus flavus [53]): inactive; Activity (Aspergillus flavus [54]): inactive
